Source: patent US20140023611A1 (priority 2010, published 2014)

Target: T1, rat NaP2b (SLC34A2) (Rattus norvegicus, UniProt Q9JJ09)
T1 construct: host or cells: HEK293
T1 sequence (Q9JJ09 1-695): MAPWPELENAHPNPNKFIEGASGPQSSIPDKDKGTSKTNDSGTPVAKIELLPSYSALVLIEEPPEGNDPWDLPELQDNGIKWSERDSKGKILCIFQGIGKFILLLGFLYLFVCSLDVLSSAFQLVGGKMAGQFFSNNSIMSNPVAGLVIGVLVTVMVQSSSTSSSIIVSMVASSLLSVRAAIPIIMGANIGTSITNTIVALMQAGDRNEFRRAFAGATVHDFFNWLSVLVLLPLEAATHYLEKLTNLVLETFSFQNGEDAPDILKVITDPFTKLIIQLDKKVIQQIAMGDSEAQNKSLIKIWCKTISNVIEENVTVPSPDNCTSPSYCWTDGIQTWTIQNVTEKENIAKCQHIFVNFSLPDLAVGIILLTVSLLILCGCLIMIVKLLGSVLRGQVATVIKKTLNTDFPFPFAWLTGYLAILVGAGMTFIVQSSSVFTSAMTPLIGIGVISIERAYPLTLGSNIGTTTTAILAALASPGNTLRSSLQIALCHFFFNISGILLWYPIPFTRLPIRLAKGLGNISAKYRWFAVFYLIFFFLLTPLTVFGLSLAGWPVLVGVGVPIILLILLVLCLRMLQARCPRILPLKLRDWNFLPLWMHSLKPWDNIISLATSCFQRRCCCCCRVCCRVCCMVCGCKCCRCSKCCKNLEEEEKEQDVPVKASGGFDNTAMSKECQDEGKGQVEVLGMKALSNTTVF
Assay: NaP2b-mediated Pi transport (33P uptake) in transfected HEK293 cells, rat NaP2b
Format: cell-based
Conditions: Structure (III) examples, Table 2; HEK293, 0.1 mM phosphate; read-out: pIC50 range for rat Nap2b (converted)
Method: HEK293 cells were obtained from the American Type Culture collection and propagated per their instructions. Expression clones for rat and human NaP2b (SLC34A2) were obtained from Open Biosystems (Catalog numbers MRN1768-9510282, and MHS1010-99823026, respectively). The sequence of the human protein was mutated to insert a threonine after residue 37, and to introduce a N39D mutation.
(§1) The rate of phosphate (Pi) uptake into HEK293 cells was measured using a modification of the method described by Mohrmann et al. (Mohrmann, I., Mohrmann, M., Biber, J., and Murer, H. (1986) Am. J. Phys. 250(3 Pt 1):G323-30.) Transfected HEK293 cells were treated with a pharmacological agent to minimize endogenous PiT-mediated phosphate transport activity, such that the only remaining sodium-dependent phosphate transport activity is that which was bestowed by introduction of the NaP2b genes.
(§2) Cells were seeded into 96-well plates at 25,000 cells/well and cultured overnight. Lipofectamine 2000 (Invitrogen) was used to introduce the NaP2b cDNA, and the cells were allowed to approach confluence during a second overnight incubation. […] Cells were then overlayed with either choline uptake buffer or sodium uptake buffer (14 mM Tris, 137 mM sodium chloride, 5.4 mM KCl, 2.8 mM CaCl2, 1.2 mM MgSO4, 100 uM KH2PO4, PiT-silencing agent, 1 mg/mL Bovine Serum Albumin, pH 7.4) containing 6-9 uCi/mL ^33P orthophosphoric acid (Perkin Elmer) and test compound. Each compound was tested at twelve concentrations ranging from 0.1 nM to 30 uM. Assays were run in duplicate.
After incubation for 3-30 minutes at room temperature, assay mixtures were removed, and the cells were washed twice with ice cold stop solution (137 mM sodium chloride, 14 mM Tris, pH 7.4). Cells were lysed by addition of 20 μL 0.1% Tween 80 followed by 100 μL scintillation fluid, and counted using a TopCount (Perkin Elmer).
pIC50 (the negative log of the IC50) values of the test compounds were calculated using GraphPad Prism.
HEK293 cells were obtained from the American Type Culture collection and propagated per their instructions. Expression clones for rat and mouse NaP2b (SLC34A2) cDNAs were obtained from Open Biosystems (Catalog numbers MRN1768-9510282 and MMM1013-98478398 respectively).
as §1, with “phosphate” for “phosphate (Pi)”
as §2, with “agent, 0.1% wt/v bovine serum albumin,” for “agent, 1 mg/mL Bovine Serum Albumin,”, “Each compounds” for “Each compound”
After incubation for 3-30 minutes at room temperature, assay mixtures were removed, and the cells were washed twice with ice cold stop solution (137 mM sodium chloride, 14 mM Tris, pH 7.4).

For `O=C(O)CCSCc1cccc(C(=O)Nc2ccc(N3CCCCC3)cc2C(=O)Nc2cnc(-c3cccc(C(F)(F)F)c3)cn2)c1` [Example 12], the IC50 was 1000 to 7940 nM.

Same assay, conditions: Structure (V) examples, Table 2; rat NaP2b, HEK293; read-out: pIC50 Range (converted)

First: O=C(Nc1ccc(N2CCCCC2)cc1C(=O)N/N=C/c1ccc(Cl)c(C(F)(F)F)c1)c1cccc(Cn2cc(CCOCCOCCOCCNC(=O)C(O)C(O)C(=O)O)nn2)c1 (centres unmarked) [Ex. 27]
Second: NCCOCCOCCOCCc1cn(Cc2cccc(C(=O)Nc3ccc(N4CCCCC4)cc3C(=O)N/N=C/c3ccc(Cl)c(C(F)(F)F)c3)c2)nn1 [Example 25]
The IC50 of the first is higher: 10000 to 100000 nM for the first, 1000 to 7940 nM for the second.

First: O=C(CCOCCOCCOCCOCCOCCOCCOCCOCCSCc1cccc(C(=O)Nc2ccc(N3CCCCC3)cc2C(=O)N/N=C/c2ccc(Cl)c(C(F)(F)F)c2)c1)N[C@H]1C(O)O[C@H](CO)[C@@H](O)[C@@H]1O (some centres unmarked) [Ex. 28]
Second: O=C(O)CCOCCOCCOCCOCCOCCOCCOCCOCCSCc1cccc(C(=O)Nc2ccc(Cl)cc2C(=O)N/N=C/c2ccc(Cl)c(C(F)(F)F)c2)c1 [Ex. 29]
The IC50 of the first is higher: 10000 to 100000 nM for the first, 100 to 794 nM for the second.

Compared with `O=C(Nc1ccc(Cl)cc1C(=O)N/N=C/c1ccc(Cl)c(C(F)(F)F)c1)c1cccc(Cn2cc(CCO)nn2)c1` [Ex. 30], `O=C(Nc1ccc(N2CCCCC2)cc1C(=O)N/N=C/c1ccc(Cl)c(C(F)(F)F)c1)c1cccc(Cn2cc(CO)nn2)c1` [Example 8] is higher in IC50: 10 to 79.4 nM for the first, 100 to 794 nM for the second.

First: O=C(Nc1ccc(N2CCCCC2)cc1C(=O)N/N=C/c1ccc(Cl)c(C(F)(F)F)c1)c1cccc(C#CCCO)c1 [Ex. 31]
Second: O=C(Nc1ccc(N2CCCCC2)cc1C(=O)N/N=C/c1ccc(Cl)c(C(F)(F)F)c1)c1cccc(Cc2nc(CCO)cs2)c1 [Ex. 45, (E)-N-(2-(2-(4-chloro-3-(trifluoromethyl)benzylidene)hydrazine-carbonyl)-4-(piperidin-1-yl)phenyl)-3-((4-(2-hydroxyethyl)thiazol-2-yl)methyl)benzamide]
The IC50 of the first is lower: 10 to 79.4 nM for the first, 100 to 794 nM for the second.

`[N-]=[N+]=NCCOCCOCCOCCNCc1cccc(C(=O)Nc2ccc(N3CCCCC3)cc2C(=O)N/N=C/c2ccc(Cl)c(C(F)(F)F)c2)c1` [Ex. 32] and `[N-]=[N+]=NCCOCCOCCOCCNC(=O)CCSCc1cccc(C(=O)Nc2ccc(N3CCCCC3)cc2C(=O)N/N=C/c2ccc(Cl)c(C(F)(F)F)c2)c1` [Ex. 33] fall in the same range of IC50: 100 to 794 nM for the first, 100 to 794 nM for the second.

`[N-]=[N+]=NCCOCCOCCOCCNC(=O)C1CCN(Cc2cccc(C(=O)Nc3ccc(N4CCCCC4)cc3C(=O)N/N=C/c3ccc(Cl)c(C(F)(F)F)c3)c2)CC1` [Ex. 34] and `COCCNC(=O)CC[S+]([O-])Cc1cccc(C(=O)Nc2ccc(N3CCCCC3)cc2C(=O)N/N=C/c2ccc(Cl)c(C(F)(F)F)c2)c1` (centres unmarked) [Ex. 51, (E)-N-(2-(2-(4-chloro-3-(trifluoromethyl)benzylidene)hydrazinecarbonyl)-4-(piperidin-1-yl)phenyl)-3-((3-(2-methoxyethylamino)-3-oxopropylsulfinyl)methyl)benzamide] fall in the same range of IC50: 100 to 794 nM for the first, 100 to 794 nM for the second.

First: CC(=O)N[C@@H](CCCCNC(=O)CCSCc1cccc(C(=O)Nc2ccc(N3CCCCC3)cc2C(=O)N/N=C/c2ccc(Cl)c(C(F)(F)F)c2)c1)C(=O)O [Ex. 35]
Second: O=C(CCSCc1cccc(C(=O)Nc2ccc(N3CCCCC3)cc2C(=O)N/N=C/c2ccc(Cl)c(C(F)(F)F)c2)c1)Nc1ccc(B(O)O)cc1 [Ex. 46, (E)-4-(3-(3-(2-(2-(4-chloro-3-(trifluoromethyl)benzylidene)hydrazinecarbonyl)-4-(piperidin-1-yl)phenylcarbamoyl)benzylthio)propanamido)phenylboronic acid]
The IC50 of the first is higher: 1000 to 7940 nM for the first, 100 to 794 nM for the second.

`NCc1cn(Cc2cccc(C(=O)Nc3ccc(N4CCCCC4)cc3C(=O)N/N=C/c3ccc(Cl)c(C(F)(F)F)c3)c2)nn1` [Example 10] and `NC(Cc1cn(Cc2cccc(C(=O)Nc3ccc(N4CCCCC4)cc3C(=O)N/N=C/c3ccc(Cl)c(C(F)(F)F)c3)c2)nn1)C(=O)O` (centres unmarked) [Example 11] fall in the same range of IC50: 1000 to 7940 nM for the first, 1000 to 7940 nM for the second.

First: O=C(O)c1ccc(-c2cn(Cc3cccc(C(=O)Nc4ccc(N5CCCCC5)cc4C(=O)N/N=C/c4ccc(Cl)c(C(F)(F)F)c4)c3)nn2)cc1 [Example 12]
Second: O=C(Nc1ccc(N2CCCCC2)cc1C(=O)N/N=C/c1ccc(Cl)c(C(F)(F)F)c1)c1cccc(Cn2cc(CCCP(=O)(O)O)nn2)c1 [Example 26]
The IC50 of the first is lower: 100 to 794 nM for the first, 10000 to 100000 nM for the second.

Test system: not given
Assay: not given
Conditions: human absorption data, common drugs; cited from earlier work

Point of comparison: `CC(C)NCC(O)COc1cccc2[nH]ccc12` (centres unmarked) [pindolol], “% FA” value 92%. Against it:
- OC[C@H]1O[C@@H](O[C@@H]2[C@@H](CO)OC(O)(CO)[C@H]2O)[C@H](O)[C@@H](O)[C@H]1O (mixture of isomers) [lactulose] — lower, 0.6%
- C=CCc1ccccc1OCC(O)CNC(C)C (centres unmarked) [alprenolol] — higher, 96%
- O=C(O)P(=O)(O)O [foscarnet] — lower, 17%
- OC[C@@H](O)[C@@H](O)[C@H](O)[C@H](O)CO [mannitol] — lower, 26%
- Cc1ccccc1N1C(=O)c2cc(S(N)(=O)=O)c(Cl)cc2NC1C (centres unmarked) [metolazone] — lower, 64%
- O=C(O)c1cc(/N=N/c2ccc(O)c(C(=O)O)c2)ccc1O [olsalazine] — lower, 2.3%
- C=CCOc1ccccc1OCC(O)CNC(C)C (centres unmarked) [oxprenolol] — higher, 97%
- CC(=O)Nc1ccc(OCC(O)CNC(C)C)cc1 (centres unmarked) [practolol] — higher, 95%
- OC[C@H]1O[C@H](OC[C@H]2O[C@H](O[C@]3(CO)O[C@H](CO)[C@@H](O)[C@@H]3O)[C@H](O)[C@@H](O)[C@@H]2O)[C@H](O)[C@@H](O)[C@H]1O [raffinose] — lower, 0.3%
- O=C(O)c1cc(/N=N/c2ccc(S(=O)(=O)Nc3ccccn3)cc2)ccc1O [sulfasalazine] — lower, 12%
- CCN1CCCC1CNC(=O)c1cc(S(N)(=O)=O)ccc1OC (centres unmarked) [sulpiride] — lower, 36%
- NC[C@H]1CC[C@H](C(=O)O)CC1 [tranexamic acid] — lower, 55%
